In the test the test system is NF-kB. Nature of the test: EMSA of nuclear extracts for basal and LPS induced NF-kB translocation, RAW 264.7 mouse macrophages (second experiment). It is filed as cell-based. Particulars: RAW264.7 cells, LPS in combination with peptide, 30 minutes incubation. On the procedure:
The transcription factor NF-kB participates in the transcriptional regulation of a variety of genes. Nuclear protein extracts were prepared from LPS and peptide treated RAW264.7 cells or from LPS treated RAW264.7 cells. In order to determine whether the peptide modulates the translocation of NF-kB into the nucleus, on these extracts EMSA was performed. Here we see that indeed peptides are able to modulate the translocation of NF-kB since the amount of labeled oligonucleotide for NF-kB is reduced. […] RAW 264.7 mouse macrophages were cultured in DMEM, containing 10% or 2% FBS, penicillin, streptomycin and glutamine, at 37 °C, 5% CO2. Cells were seeded in a 12-wells plate (3x10^6 cells/ml) in a total volume of 1 ml for 2hours and then stimulated with LPS (E. coli 026:B6; Difco Laboratories, Detroit, MI, USA) and/or gene-regulatory peptide(1 microgr/ml). After 30 minutes of incubation plates were centrifuged and cells were collected for nuclear extracts. Nuclear extracts and EMSA were prepared according to Schreiber et al. Cells were collected in a tube and centrifuged for 5 minutes at 2000 rpm (rounds per minute) at 4°C (Universal 30 RF, Hettich Zentrifuges). […]
On the technique in general: In EMSA bound probe runs differently from free probe, usually more slowly.

Ends that are not written are not given here.

On to “circular LQGVLPALPQVVC (also: circular, ring type not given here)”, for which the “LPS induced translocation of NF-kB” value is recorded as “inhibition of LPS induced translocation of NF-kB”.

Values taken from patent EP1466613A1, “Compositions for mucosal and oral administration comprising hCG fragments” (Biotempt B.V., priority 2003, dated 2004).
